Measurements reported in PubChem BioAssay (NCI).
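Following 48 hours of exposure in 96-well plates, responses at five concentrations were used to interpolate endpoints linearly. Definition used: TGI = concentration required for complete inhibition of growth.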

Assays:
Assay in all cases: NCI anticancer screen, dose series, 48 h
RPMI-8226 leukemia = tested on: RPMI-8226 leukemia
MOLT-4 leukemia = tested on: MOLT-4 leukemia
UACC-62 melanoma = tested on: UACC-62 melanoma
M14 melanoma = tested on: M14 melanoma
NCI-H23 lung = tested on: NCI-H23 lung
UO-31 renal = tested on: UO-31 renal
SNB-19 CNS = tested on: SNB-19 CNS
SNB-78 CNS = tested on: SNB-78 CNS
KM12 colon = tested on: KM12 colon
SK-MEL-28 melanoma = tested on: SK-MEL-28 melanoma
SK-OV-3 ovarian = tested on: SK-OV-3 ovarian
IGROV1 ovarian = tested on: IGROV1 ovarian
K-562 leukemia = tested on: K-562 leukemia
SNB-75 CNS = tested on: SNB-75 CNS
HT29 colon = tested on: HT29 colon
A498 renal = tested on: A498 renal
HL-60(TB) leukemia = tested on: HL-60(TB) leukemia
OVCAR-5 ovarian = tested on: OVCAR-5 ovarian
NCI-H522 lung = tested on: NCI-H522 lung
M19-MEL melanoma = tested on: M19-MEL melanoma
UACC-257 melanoma = tested on: UACC-257 melanoma
SF-268 CNS = tested on: SF-268 CNS
LXFL 529 NSCLC = tested on: LXFL 529 NSCLC
RXF 393 renal = tested on: RXF 393 renal
SF-295 CNS = tested on: SF-295 CNS
DMS 114 small cell lung = tested on: DMS 114 small cell lung
SR leukemia = tested on: SR leukemia
NCI-H460 lung = tested on: NCI-H460 lung
OVCAR-3 ovarian = tested on: OVCAR-3 ovarian
HOP-62 NSCLC = tested on: HOP-62 NSCLC
SK-MEL-2 melanoma = tested on: SK-MEL-2 melanoma
HOP-92 NSCLC = tested on: HOP-92 NSCLC
COLO 205 colon = tested on: COLO 205 colon
OVCAR-4 ovarian = tested on: OVCAR-4 ovarian
U251 CNS = tested on: U251 CNS
KM20L2 colon = tested on: KM20L2 colon
ACHN renal = tested on: ACHN renal
786-0 renal = tested on: 786-0 renal
CCRF-CEM leukemia = tested on: CCRF-CEM leukemia
TK-10 renal = tested on: TK-10 renal
HOP-18 NSCLC = tested on: HOP-18 NSCLC
A549 NSCLC = tested on: A549 NSCLC
SF-539 CNS = tested on: SF-539 CNS
DMS 273 small cell lung = tested on: DMS 273 small cell lung
OVCAR-8 ovarian = tested on: OVCAR-8 ovarian
XF 498 CNS = tested on: XF 498 CNS
SK-MEL-5 melanoma = tested on: SK-MEL-5 melanoma
MALME-3M melanoma = tested on: MALME-3M melanoma
HCT-116 colon = tested on: HCT-116 colon
HCT-15 colon = tested on: HCT-15 colon
SN12C renal = tested on: SN12C renal
NCI-H226 lung = tested on: NCI-H226 lung
EKVX NSCLC = tested on: EKVX NSCLC
SW-620 colon = tested on: SW-620 colon
LOX IMVI melanoma = tested on: LOX IMVI melanoma
DLD-1 colon = tested on: DLD-1 colon
HCC-2998 colon = tested on: HCC-2998 colon
CAKI-1 renal = tested on: CAKI-1 renal

Compound [N-]=[N+]=NC1(c2ccccc2)C(=O)c2cccc3c2N(CCC3)C1=O (stereo not given) has a TGI (RPMI-8226 leukemia) of over 100 µM, a TGI (MOLT-4 leukemia) of over 100 µM and a TGI (UACC-62 melanoma) of over 100 µM. For the same compound, the TGI (M14 melanoma) was over 100 µM, the TGI (NCI-H23 lung) was over 100 µM and the TGI (UO-31 renal) was 74.3 µM. It also gave a TGI (SNB-19 CNS) of over 100 µM, a TGI (SNB-78 CNS) of over 100 µM and a TGI (KM12 colon) of over 100 µM. It also gave a TGI (SK-MEL-28 melanoma) of over 100 µM, a TGI (SK-OV-3 ovarian) of over 100 µM and a TGI (IGROV1 ovarian) of over 100 µM. It also gave a TGI (K-562 leukemia) of 89.4 µM, a TGI (SNB-75 CNS) of over 100 µM and a TGI (HT29 colon) of over 100 µM. The TGI (A498 renal) was over 100 µM, the TGI (HL-60(TB) leukemia) was 64.5 µM and the TGI (OVCAR-5 ovarian) was over 100 µM. For the same compound, the TGI (NCI-H522 lung) was over 100 µM, the TGI (M19-MEL melanoma) was over 100 µM and the TGI (UACC-257 melanoma) was 82.7 µM. It also gave a TGI (SF-268 CNS) of over 100 µM, a TGI (LXFL 529 NSCLC) of over 100 µM and a TGI (RXF 393 renal) of over 100 µM. For the same compound, the TGI (SF-295 CNS) was over 100 µM, the TGI (DMS 114 small cell lung) was over 100 µM and the TGI (SR leukemia) was over 100 µM. For the same compound, the TGI (NCI-H460 lung) was over 100 µM, the TGI (OVCAR-3 ovarian) was over 100 µM and the TGI (HOP-62 NSCLC) was over 100 µM. The TGI (SK-MEL-2 melanoma) was over 100 µM, the TGI (HOP-92 NSCLC) was over 100 µM and the TGI (COLO 205 colon) was over 100 µM. The TGI (OVCAR-4 ovarian) was over 100 µM, the TGI (U251 CNS) was over 100 µM and the TGI (KM20L2 colon) was over 100 µM. For the same compound, the TGI (ACHN renal) was over 100 µM and the TGI (786-0 renal) was over 100 µM.
Compound CCCC(=O)OC[n+]1ccc2c(C)c3[nH]c4ccccc4c3c(C)c2c1 has a TGI (MOLT-4 leukemia) of 3.04 µM, a TGI (CCRF-CEM leukemia) of over 100 µM and a TGI (UO-31 renal) of 5.59 µM. It also gave a TGI (KM12 colon) of 1.8 µM, a TGI (K-562 leukemia) of over 100 µM and a TGI (SNB-75 CNS) of over 100 µM. For the same compound, the TGI (HT29 colon) was over 100 µM, the TGI (HL-60(TB) leukemia) was over 100 µM and the TGI (OVCAR-5 ovarian) was 2.34 µM. The TGI (M19-MEL melanoma) was over 100 µM, the TGI (TK-10 renal) was 5.5 µM and the TGI (SR leukemia) was 17.5 µM. For the same compound, the TGI (HOP-18 NSCLC) was 2.99 µM.
In the case of COc1cc(OC)c(OC)cc1/C=N/NC(=O)N/N=C/c1cc(OC)c(OC)cc1OC, the TGI (RPMI-8226 leukemia) is reported as over 100 µM, the TGI (MOLT-4 leukemia) is reported as over 100 µM and the TGI (UACC-62 melanoma) is reported as over 100 µM. For the same compound, the TGI (A549 NSCLC) was over 100 µM, the TGI (CCRF-CEM leukemia) was over 100 µM and the TGI (M14 melanoma) was over 100 µM. It also gave a TGI (NCI-H23 lung) of over 100 µM, a TGI (SF-539 CNS) of over 100 µM and a TGI (UO-31 renal) of over 100 µM. For the same compound, the TGI (DMS 273 small cell lung) was over 100 µM, the TGI (SNB-19 CNS) was over 100 µM and the TGI (SNB-78 CNS) was over 100 µM. For the same compound, the TGI (KM12 colon) was over 100 µM, the TGI (SK-MEL-28 melanoma) was over 100 µM and the TGI (OVCAR-8 ovarian) was over 100 µM. For the same compound, the TGI (XF 498 CNS) was over 100 µM, the TGI (SK-OV-3 ovarian) was over 100 µM and the TGI (IGROV1 ovarian) was over 100 µM. The TGI (SK-MEL-5 melanoma) was over 100 µM, the TGI (MALME-3M melanoma) was over 100 µM and the TGI (K-562 leukemia) was over 100 µM. It also gave a TGI (SNB-75 CNS) of 52.3 µM, a TGI (HT29 colon) of over 100 µM and a TGI (HCT-116 colon) of over 100 µM. The TGI (A498 renal) was over 100 µM, the TGI (HCT-15 colon) was over 100 µM and the TGI (SN12C renal) was over 100 µM. It also gave a TGI (OVCAR-5 ovarian) of over 100 µM, a TGI (NCI-H522 lung) of 86.5 µM and a TGI (M19-MEL melanoma) of over 100 µM. For the same compound, the TGI (UACC-257 melanoma) was over 100 µM, the TGI (SF-268 CNS) was over 100 µM and the TGI (LXFL 529 NSCLC) was over 100 µM. It also gave a TGI (SF-295 CNS) of over 100 µM, a TGI (DMS 114 small cell lung) of over 100 µM and a TGI (TK-10 renal) of over 100 µM. It also gave a TGI (NCI-H226 lung) of over 100 µM, a TGI (NCI-H460 lung) of over 100 µM and a TGI (EKVX NSCLC) of over 100 µM. The TGI (OVCAR-3 ovarian) was over 100 µM, the TGI (SK-MEL-2 melanoma) was over 100 µM and the TGI (HOP-92 NSCLC) was over 100 µM. The TGI (SW-620 colon) was over 100 µM, the TGI (COLO 205 colon) was over 100 µM and the TGI (LOX IMVI melanoma) was over 100 µM. The TGI (OVCAR-4 ovarian) was over 100 µM, the TGI (HOP-18 NSCLC) was over 100 µM and the TGI (U251 CNS) was over 100 µM. It also gave a TGI (KM20L2 colon) of over 100 µM, a TGI (ACHN renal) of over 100 µM and a TGI (786-0 renal) of over 100 µM.
O=C(c1ccc([N+](=O)[O-])cc1[N+](=O)[O-])N(/N=C/C=C/c1ccccc1)c1nnc(-c2ccccc2)c(-c2ccccc2)n1 gave a TGI (RPMI-8226 leukemia) of over 100 µM, a TGI (MOLT-4 leukemia) of over 100 µM and a TGI (UACC-62 melanoma) of 70.4 µM. The TGI (A549 NSCLC) was over 100 µM, the TGI (CCRF-CEM leukemia) was 84.2 µM and the TGI (M14 melanoma) was over 100 µM. For the same compound, the TGI (NCI-H23 lung) was 93.2 µM, the TGI (SF-539 CNS) was 30.1 µM and the TGI (UO-31 renal) was 50.6 µM. For the same compound, the TGI (DMS 273 small cell lung) was 72.6 µM, the TGI (SNB-19 CNS) was over 100 µM and the TGI (KM12 colon) was over 100 µM. For the same compound, the TGI (SK-MEL-28 melanoma) was 68.6 µM, the TGI (OVCAR-8 ovarian) was 67.8 µM and the TGI (XF 498 CNS) was 42.3 µM. It also gave a TGI (DLD-1 colon) of over 100 µM, a TGI (SK-OV-3 ovarian) of over 100 µM and a TGI (IGROV1 ovarian) of over 100 µM. It also gave a TGI (SK-MEL-5 melanoma) of over 100 µM, a TGI (MALME-3M melanoma) of over 100 µM and a TGI (K-562 leukemia) of 57.3 µM. The TGI (SNB-75 CNS) was 86.8 µM, the TGI (HT29 colon) was over 100 µM and the TGI (A498 renal) was 95.2 µM. For the same compound, the TGI (HCT-15 colon) was over 100 µM, the TGI (HL-60(TB) leukemia) was 51.6 µM and the TGI (SN12C renal) was over 100 µM. It also gave a TGI (OVCAR-5 ovarian) of over 100 µM, a TGI (NCI-H522 lung) of 96.6 µM and a TGI (M19-MEL melanoma) of over 100 µM. It also gave a TGI (UACC-257 melanoma) of over 100 µM, a TGI (SF-268 CNS) of over 100 µM and a TGI (HCC-2998 colon) of over 100 µM. The TGI (RXF 393 renal) was 71.1 µM, the TGI (SF-295 CNS) was over 100 µM and the TGI (DMS 114 small cell lung) was over 100 µM. The TGI (TK-10 renal) was 78 µM, the TGI (NCI-H226 lung) was over 100 µM and the TGI (NCI-H460 lung) was over 100 µM. It also gave a TGI (EKVX NSCLC) of over 100 µM, a TGI (OVCAR-3 ovarian) of over 100 µM and a TGI (HOP-62 NSCLC) of over 100 µM. The TGI (SK-MEL-2 melanoma) was 97.5 µM, the TGI (HOP-92 NSCLC) was 51.2 µM and the TGI (SW-620 colon) was over 100 µM. The TGI (COLO 205 colon) was over 100 µM, the TGI (CAKI-1 renal) was 79.6 µM and the TGI (LOX IMVI melanoma) was over 100 µM. It also gave a TGI (OVCAR-4 ovarian) of 76.6 µM, a TGI (U251 CNS) of over 100 µM and a TGI (KM20L2 colon) of over 100 µM. It also gave a TGI (ACHN renal) of 78.1 µM and a TGI (786-0 renal) of 56 µM.
